US12144851B2, “Vaccinal strategy” (INSERM (INSTITUT NATIONAL DE LA SANTÉ ET DE LA RECHERCHE …, priority 2018, dated 2024)
Read-outs that look alike come from different tables or passages of the source. Where a SMILES comes first, the peptide text is derived from it. Where no end group is shown, it is not given here.

How the values were obtained:
[1] = test system: MELOE-1, HLA A*0201 restricted CD8 T cell clone; settings: for cross-presentation compared with full length MELOE-1 / native antigen (in words): full length MELOE-1 as reference; for Fold change = EC50 (M) of MELOE-111-46/EC50 (M) SLP: SLP MELOE-113-27 xxxx MELOE-136-44, TNF-a response of CD8 T cell clone to SLP-loaded DC, range over independent experiments
[2] = test system: MELOE-1, HLA DRb1*11 restricted CD4 T cell clone
[3] = test system: CD4 MELOE-113-27-specific T cell clone (HLA DRB1*01 restricted)
Description: MELOE-111-46 native long peptide and SLP with the linker GGGG (SEQ ID NO:160) were used as controls.

[4] = test system: CD8+ splenocytes restimulated with MELOE-136-44; experiment: Immunization of transgenic mice with SLP, CD8 ELISpot-IFN-g; assay type: in vivo, HLA-DRB1*0101/HLA-A*0201 transgenic mice; settings: INFg-ELIspot; positive if spots more than twice background and above ten; s.c. 100 μg prime, 50 μg boosts, IFA + polyI:C
Description: CD8+ splenocytes from immunized mice were tested by INFg-ELIspot following restimulation with the short epitope MELOE-136-44. Mice were considered positive if the number of spots after restimulation were more than twice the background level and above ten spots.
HLA-DRB1*0101/HLA-A*0201 transgenic mice (A2/DR1 mice) were used to evaluate immunogenicity of peptides. Group of 5 female A2/DR1 mice (6 to 10 weeks) were immunized subcutaneously with 100 μg of each peptides emulsified in incomplete Freund adjuvant (v/v) plus 50 μg of polyI:C. At day 14 and day 28 boost vaccinations were performed with 50 μg of each peptide along with the same adjuvants. All experiments were carried out according to the good laboratory practices defined by the animal experimentation Rules in France.
Specific immune responses were evaluated 10 days after the last boost by ELISpot-IFN-g (Diaclone, France). Briefly, freshly isolated splenocytes or CD8 positive T cells from spleen (CD8+ T Cell Isolation Kit, Miltenyi Biotec) were incubated (2.105 cells per well) during 15-20 hours in ELISpot plate in the presence of the class I MELOE-1 epitope (5 μg/ml final) or medium (X-vivo, as negative control) or PMA-ionomycin (positive control). Ex vivo CD4 T cell responses were evaluated on the CD8 negative fraction as above with the HLA-DRB1*0101-restricted epitope MELOE-113-27. […] Spot-forming cells were counted using the «C.T.L. Immunospot» system (Cellular Technology Ltd). Results were considered positive when the ELISPOT counts were >10 spots and above 2× the background (medium). (Dosset et al Clin Cancer Res, 2012)
Finally, we explored the immunogenicity of our SLP in vivo in HLA-DRB1*0101/HLA-A*0201 transgenic mice. Mice were immunized subcutaneously with 100 μg of SLP in IFA and poly I:C and boosted at D14 and D28 with 50 μg of SLP with the same adjuvants (see M&M). We focused on cross-presentation and thus assessed CD8 T cell responses by ELISpot-IFN-g after re-stimulation with the short MELOE-1136-44 epitope (SEQ ID NO:31) or with medium alone. A mouse was considered responder when ELIspots were above 10 and at least twice about background. A typical experiment is presented in FIG. 7 comparing immunization with SLP containing MELOE-113-27 (SEQ ID NO:21) and MELOE-136-44 (SEQ ID NO:31) with linker GGGG (SEQ ID NO:160) or LLSVGG (SEQ ID NO:9). Immunization with SLP containing GGGG (SEQ ID NO:160) generated moderate CD8 responses in 3 out of five mice while immunization with SLP with LLSVGG (SEQ ID NO:9) was efficient in all 5 mice with two mice showing robust CD8 responses. Previous experiments performed with the shorter linkers LLSV (SEQ ID NO:4) or LLSVG (SEQ ID NO:8) also supported the hypothesis that our synthetic linkers favored cross-presentation when compared to either the linker GGGG or the native sequence (Table 4). In contrast, CD4 responses evaluated ex vivo towards the HLA-DRB1*0101 epitope were very low (FIG. 7C).

[5] = read-out: EC50, cross-presentation of the HLA-A*0201-restricted MELOE-1 epitope, SLP series MELOE-1 11-23 xxxx MELOE-1 36-44, three independent experiments, FIG. 3

Compound	cross-presentation compared with full length MELOE-1 / native antigen (in words) [1]	Fold change = EC50 (M) of MELOE-111-46/EC50 (M) SLP [1]	EC50 [1, 5]	also measured
CC(C)C[C@H](NC(=O)[C@@H](NC(=O)CNC(=O)CNC(=O)CNC(=O)CNC(=O)[C@H](Cc1c[nH]c2ccccc12)NC(=O)[C@@H]1CCCN1C(=O)[C@@H]1CCCN1C(=O)[C@H](CS)NC(=O)[C@H](C)NC(=O)[C@H](C)NC(=O)CNC(=O)[C@H](CCC(=O)O)NC(=O)[C@H](CO)NC(=O)[C@@H]1CCCN1C(=O)[C@H](CC(C)C)NC(=O)[C@H](Cc1ccccc1)NC(=O)[C@H](CCC(N)=O)NC(=O)[C@H](CCC(=O)O)NC(=O)[C@H](CCCNC(=N)N)NC(=O)[C@H](CO)NC(=O)[C@@H](NC(=O)[C@H](C)NC(=O)[C@H](C)N)[C@@H](C)O)[C@@H](C)O)C(=O)N[C@@H](CC(N)=O)C(=O)N[C@@H](CC(=O)O)C(=O)N[C@@H](CCC(=O)O)C(=O)N[C@@H](CS)C(=O)N[C@@H](Cc1c[nH]c2ccccc12)C(=O)N1CCC[C@H]1C(=O)N[C@@H](C)C(=O)O [GGGG (MELOE-111-23 xxxx MELOE-136-44), reference compound] (H-AATSREQFLPSEGAACPPWGGGGTLNDECWPA-OH; N-terminus and C-terminus assumed)	poorer cross-presentation	–	–	EC50 [1]: 1200 nM
CC[C@H](C)[C@H](NC(=O)[C@H](CCCNC(=N)N)NC(=O)[C@H](CCC(=O)O)NC(=O)[C@H](CO)NC(=O)[C@@H]1CCCN1C(=O)[C@H](Cc1c[nH]cn1)NC(=O)[C@H](Cc1c[nH]c2ccccc12)NC(=O)[C@@H]1CCCN1C(=O)[C@@H]1CCCN1C(=O)[C@H](CS)NC(=O)[C@H](C)NC(=O)[C@H](C)N)C(=O)N[C@@H](CO)C(=O)N[C@@H](CO)C(=O)N[C@H](C(=O)N[C@@H](CC(C)C)C(=O)NCC(=O)NCC(=O)NCC(=O)NCC(=O)N[C@H](C(=O)N[C@@H](CC(C)C)C(=O)N[C@@H](CC(N)=O)C(=O)N[C@@H](CC(=O)O)C(=O)N[C@@H](CCC(=O)O)C(=O)N[C@@H](CS)C(=O)N[C@@H](Cc1c[nH]c2ccccc12)C(=O)N1CCC[C@H]1C(=O)N[C@@H](C)C(=O)N[C@@H](CO)C(=O)N[C@@H](CC(C)C)C(=O)O)[C@@H](C)O)[C@@H](C)O [GGGG (MELOE-124-37 xxxx MELOE-136-44), reference compound] (H-AACPPWHPSERISSTLGGGGTLNDECWPASL-OH; N-terminus and C-terminus assumed)	–	–	–	EC50 [2]: 26 nM; EC50 [1]: 1900 nM
CC[C@H](C)[C@H](NC(=O)[C@H](CCCNC(=N)N)NC(=O)[C@H](CCC(=O)O)NC(=O)[C@H](CO)NC(=O)[C@@H]1CCCN1C(=O)[C@H](Cc1c[nH]cn1)NC(=O)[C@H](Cc1c[nH]c2ccccc12)NC(=O)[C@@H]1CCCN1C(=O)[C@@H]1CCCN1C(=O)[C@H](CS)NC(=O)[C@H](C)NC(=O)[C@H](C)N)C(=O)N[C@@H](CO)C(=O)N[C@@H](CO)C(=O)N[C@H](C(=O)N[C@@H](CC(C)C)C(=O)N[C@@H](CC(C)C)C(=O)N[C@H](C(=O)NCC(=O)N[C@@H](CO)C(=O)N[C@H](C(=O)N[C@@H](CC(C)C)C(=O)N[C@@H](CC(N)=O)C(=O)N[C@@H](CC(=O)O)C(=O)N[C@@H](CCC(=O)O)C(=O)N[C@@H](CS)C(=O)N[C@@H](Cc1c[nH]c2ccccc12)C(=O)N1CCC[C@H]1C(=O)N[C@@H](C)C(=O)N[C@@H](CO)C(=O)N[C@@H](CC(C)C)C(=O)O)[C@@H](C)O)C(C)C)[C@@H](C)O [LVGS (MELOE-124-37 xxxx MELOE-136-44)] (H-AACPPWHPSERISSTLLVGSTLNDECWPASL-OH)	–	–	–	EC50 [2]: 14 nM; EC50 [1]: 110 nM
CC(C)C[C@H](NC(=O)[C@H](CO)NC(=O)[C@H](C)NC(=O)[C@@H]1CCCN1C(=O)[C@H](Cc1c[nH]c2ccccc12)NC(=O)[C@H](CS)NC(=O)[C@H](CCC(=O)O)NC(=O)[C@H](CC(=O)O)NC(=O)[C@H](CC(N)=O)NC(=O)[C@H](CC(C)C)NC(=O)[C@@H](NC(=O)CNC(=O)[C@@H](NC(=O)[C@H](CO)NC(=O)[C@H](CC(C)C)NC(=O)[C@H](CC(C)C)NC(=O)[C@H](Cc1c[nH]c2ccccc12)NC(=O)[C@@H]1CCCN1C(=O)[C@@H]1CCCN1C(=O)[C@H](CS)NC(=O)[C@H](C)NC(=O)[C@H](C)NC(=O)CNC(=O)[C@H](CCC(=O)O)NC(=O)[C@H](CO)NC(=O)[C@@H]1CCCN1C(=O)[C@H](CC(C)C)NC(=O)[C@H](Cc1ccccc1)NC(=O)[C@H](CCC(N)=O)NC(=O)[C@H](CCC(=O)O)NC(=O)[C@H](CCCNC(=N)N)NC(=O)[C@H](CO)NC(=O)[C@@H](N)[C@@H](C)O)C(C)C)[C@@H](C)O)C(=O)O [SEQ ID NO: 89] (H-TSREQFLPSEGAACPPWLLSVGTLNDECWPASL-OH; N-terminus and C-terminus assumed)	–	10-20	–	EC50 [3]: 6.8 nM; CD8 responses, positive mice, Exp#2 [4]: 2/5
ASLG [ASLG (MELOE-111-23 xxxx MELOE-136-44)]	ten fold better presentation	–	12 nM	–
GSGS [GSGS (MELOE-111-23 xxxx MELOE-136-44)]	poorer cross-presentation	–	430 nM	–
LLSV [LLSV (MELOE-111-23 xxxx MELOE-136-44)]	hundred fold better	–	2.8 nM	–
LVGS [LVGS (MELOE-111-23 xxxx MELOE-136-44)]	ten fold better presentation	–	34 nM	–
MSCVGYPDEATSREQFLPSEGAACPPWHPSERISSTLNDECWPASL (cysteines drawn unpaired) [full length MELOE-1, reference compound]	–	–	–	EC50 [2]: ~70 nM
PIVLG [PIVLG (MELOE-111-23 xxxx MELOE-136-44)]	hundred fold better	–	3.2 nM	–
TSREQFLPSEGAACPPWALSVGGTLNDECWPASL (Synthetic SLP) [SEQ ID NO: 77]	–	1-3	–	–
TSREQFLPSEGAACPPWGLSVGGTLNDECWPASL (Synthetic SLP) [SEQ ID NO: 81]	–	1	–	–
TSREQFLPSEGAACPPWGLSVVVTLNDECWPASL (Synthetic SLP) [SEQ ID NO: 85]	–	1	–	–
TSREQFLPSEGAACPPWPLSVIITLNDECWPASL (Synthetic SLP) [SEQ ID NO: 79]	–	2.3-10	–	–
TSREQFLPSEGAACPPWSLSVAATLNDECWPASL (Synthetic SLP) [SEQ ID NO: 73]	–	7-8	–	–
TSREQFLPSEGAACPPWSLSVGGTLNDECWPASL (Synthetic SLP) [SEQ ID NO: 75]	–	1-8	–	–
TSREQFLPSEGAACPPWVLSVGGTLNDECWPASL (Synthetic SLP) [SEQ ID NO: 69]	–	1.5-2	–	–
TSREQFLPSEGAACPPWVLSVGTLNDECWPASL (Synthetic SLP) [SEQ ID NO: 71]	ten fold	3-13	–	–
VLSVG [VLSVG (MELOE-111-23 xxxx MELOE-136-44)]	hundred fold better	–	2.1 nM	–
